# Data: the supplement of paper PMC7214452
# Where a name gives a salt, the structure may show the parent alone.
# Key:
# Assay in all cases: normalized area under the dose-response curve (viability relative to DMSO control) (fraction); higher = less sensitive (more viable cells)
# Settings in all cases: exposure time not given
# [1] = tested on: RPMI 8226 (cancer type: MM)
# Procedure: (§1)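 25 myeloma and 15 non-Hodgkin lymphoma cell lines were exposed to each of 76 drugs as 7-point log dilutions (0.01 nM–10 µM) in duplicate. Viability was read with CellTiter-Glo and normalised to DMSO (0.1%) and staurosporine (10 µM) plate controls. Normalised AUC was calculated by the trapezoidal method relative to the negative control.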
# [2] = tested on: SKMM2 (cancer type: MM)
# Procedure: as §1
# [3] = tested on: JeKo-1 (cancer type: Mantle)
# Procedure: as §1
# [4] = tested on: L363 (cancer type: MM)
# Procedure: as §1
# [5] = tested on: SU-DHL1 (cancer type: TCL)
# Procedure: as §1
# [6] = tested on: U266 (cancer type: MM)
# Procedure: as §1
# [7] = tested on: KMS18 (cancer type: MM)
# Procedure: as §1
# [8] = tested on: JVM2 (cancer type: Mantle)
# Procedure: as §1
# [9] = tested on: NCI-H929 (cancer type: MM)
# Procedure: as §1
# [10] = tested on: OCI-MY5 (cancer type: MM)
# Procedure: as §1
# [11] = tested on: OCI-MY5/CRBN (cancer type: MM)
# Procedure: as §1
# [12] = tested on: Mino (cancer type: Mantle)
# Procedure: as §1
# [13] = tested on: OCI-MY7 (cancer type: MM)
# Procedure: as §1
# [14] = tested on: SU-DHL6 (cancer type: DLBCL)
# Procedure: as §1
# [15] = tested on: Karpas-299 (cancer type: TCL)
# Procedure: as §1
# [16] = tested on: OPM2 (cancer type: MM)
# Procedure: as §1
# [17] = tested on: OCI-LY19 (cancer type: DLBCL)
# Procedure: as §1
# [18] = tested on: KMS28BM (cancer type: MM)
# Procedure: as §1
# [19] = tested on: OCI-LY3 (cancer type: DLBCL)
# Procedure: as §1
# [20] = tested on: MM1.R (cancer type: MM)
# Procedure: as §1
# [21] = tested on: Granta-519 (cancer type: Mantle)
# Procedure: as §1
# [22] = tested on: AMO1 (cancer type: MM)
# Procedure: as §1
# [23] = tested on: KMS11 (cancer type: MM)
# Procedure: as §1
# [24] = tested on: KMS26 (cancer type: MM)
# Procedure: as §1
# [25] = tested on: HuT 78 (cancer type: TCL)
# Procedure: as §1
# [26] = tested on: LP1 (cancer type: MM)
# Procedure: as §1
# [27] = tested on: OCI-LY1 (cancer type: DLBCL)
# Procedure: as §1
# [28] = tested on: KMS34 (cancer type: MM)
# Procedure: as §1
# [29] = tested on: My-La (cancer type: TCL)
# Procedure: as §1
# [30] = tested on: OCI-MY5/Vec (cancer type: MM)
# Procedure: as §1
# [31] = tested on: FR4 (cancer type: MM)
# Procedure: as §1
# [32] = tested on: MM1.S (cancer type: MM)
# Procedure: as §1
# [33] = tested on: XG2 (cancer type: MM)
# Procedure: as §1
# [34] = tested on: KMS12PE (cancer type: MM)
# Procedure: as §1
# [35] = tested on: EJM (cancer type: MM)
# Procedure: as §1
# [36] = tested on: SR-786 (cancer type: TCL)
# Procedure: as §1
# [37] = tested on: KMS28PE (cancer type: MM)
# Procedure: as §1
# [38] = tested on: SU-DHL2 (cancer type: DLBCL)
# Procedure: as §1
# [39] = tested on: JJN3 (cancer type: MM)
# Procedure: as §1
# [40] = tested on: Se-Ax (cancer type: TCL)
# Procedure: as §1
SMILES,normalized area under the dose-response curve [1],normalized area under the dose-response curve [2],normalized area under the dose-response curve [3],normalized area under the dose-response curve [4],normalized area under the dose-response curve [5],normalized area under the dose-response curve [6],normalized area under the dose-response curve [7],normalized area under the dose-response curve [8],normalized area under the dose-response curve [9],normalized area under the dose-response curve [10],normalized area under the dose-response curve [11],normalized area under the dose-response curve [12],normalized area under the dose-response curve [13],normalized area under the dose-response curve [14],normalized area under the dose-response curve [15],normalized area under the dose-response curve [16],normalized area under the dose-response curve [17],normalized area under the dose-response curve [18],normalized area under the dose-response curve [19],normalized area under the dose-response curve [20],normalized area under the dose-response curve [21],normalized area under the dose-response curve [22],normalized area under the dose-response curve [23],normalized area under the dose-response curve [24],normalized area under the dose-response curve [25],normalized area under the dose-response curve [26],normalized area under the dose-response curve [27],normalized area under the dose-response curve [28],normalized area under the dose-response curve [29],normalized area under the dose-response curve [30],normalized area under the dose-response curve [31],normalized area under the dose-response curve [32],normalized area under the dose-response curve [33],normalized area under the dose-response curve [34],normalized area under the dose-response curve [35],normalized area under the dose-response curve [36],normalized area under the dose-response curve [37],normalized area under the dose-response curve [38],normalized area under the dose-response curve [39],normalized area under the dose-response curve [40]
O=C(/C=C/c1cccc(S(=O)(=O)Nc2ccccc2)c1)NO [Belinostat],0.564,0.712,0.229,0.473,0.218,0.394,0.553,0.385,0.1,0.201,0.262,0.249,0.44,0.582,0.0712,0.674,0.38,0.416,0.343,0.36,0.531,0.301,0.445,0.366,0.178,0.628,0.223,0.274,0.506,0.25,0.428,0.21,0.473,0.4,0.247,0.215,0.384,0.4,0.53,0.215
Cn1c(CCCC(=O)O)nc2cc(N(CCCl)CCCl)ccc21 [Bendamustine hydrochloride],0.879,0.955,0.87,0.84,0.794,0.92,0.832,0.684,0.75,0.835,0.932,0.86,0.74,0.911,0.831,0.842,0.834,0.869,0.784,0.67,0.885,0.849,0.849,0.677,0.779,0.946,0.832,0.755,0.862,0.921,0.955,0.68,0.875,0.74,0.815,0.74,0.847,0.795,0.938,0.719
